Data: US20030144360A1, “Composition and method for modulating BAR/FXR receptor activity” (Allergan Sales, Inc., priority 2001, published 2003)

What was measured:
[1] = target: T1, BAR-RXRm heterodimers (Rattus norvegicus, UniProt Q62735); assay: Co-activator (GRIP1) recruitment gel shift assay, BAR-RXRm heterodimer; format: binding; conditions: for recruitment of co-activator GRIP1 (gel shift): 32P-labeled IBABP IR1 response element, range of doses
T1 construct: nucleic acid regions encoding the following full-length proteins were cloned into a CMV expression vector; made in house; host or cells: receptors: in vitro translation; GST-GRIP1: E. coli
T1 sequence (Q62735 1-469): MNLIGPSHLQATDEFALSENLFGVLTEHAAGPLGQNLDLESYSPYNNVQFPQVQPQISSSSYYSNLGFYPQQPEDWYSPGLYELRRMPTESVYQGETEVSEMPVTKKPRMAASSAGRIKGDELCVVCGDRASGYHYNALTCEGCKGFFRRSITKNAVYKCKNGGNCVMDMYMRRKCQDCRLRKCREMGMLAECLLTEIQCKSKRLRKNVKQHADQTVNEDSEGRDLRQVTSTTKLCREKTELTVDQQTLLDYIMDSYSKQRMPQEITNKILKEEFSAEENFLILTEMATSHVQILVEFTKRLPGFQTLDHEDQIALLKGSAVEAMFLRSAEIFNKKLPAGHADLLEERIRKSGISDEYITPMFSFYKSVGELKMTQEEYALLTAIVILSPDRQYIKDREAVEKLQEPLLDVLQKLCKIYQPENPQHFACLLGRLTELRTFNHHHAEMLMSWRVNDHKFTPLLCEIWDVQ
T1 sequence (P19793 1-462 D322P partner): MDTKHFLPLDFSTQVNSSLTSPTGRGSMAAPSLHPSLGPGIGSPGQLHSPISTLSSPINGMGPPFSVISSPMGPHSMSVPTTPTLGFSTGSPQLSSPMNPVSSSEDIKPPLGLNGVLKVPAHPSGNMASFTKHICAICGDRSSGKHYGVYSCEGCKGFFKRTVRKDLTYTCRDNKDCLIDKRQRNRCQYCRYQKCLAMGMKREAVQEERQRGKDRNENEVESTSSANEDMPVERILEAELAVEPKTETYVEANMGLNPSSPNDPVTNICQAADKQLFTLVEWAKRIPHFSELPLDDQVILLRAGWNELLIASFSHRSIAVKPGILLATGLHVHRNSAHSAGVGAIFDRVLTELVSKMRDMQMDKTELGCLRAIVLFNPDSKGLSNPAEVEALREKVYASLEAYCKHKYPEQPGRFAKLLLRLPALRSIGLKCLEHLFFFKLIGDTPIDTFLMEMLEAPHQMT
From the text: Coactivators, which bind agonist-activated nuclear receptors including, without limitation, RAR and RXR, function to assist the activated nuclear receptor exert its activity as a transcription factor. Characterized co-activators include CBP, p300, RIP140, SRC-1, ACTR, TIF2 (also called GRIP 1) and TIFI. In most cases coactivator will not bind the receptor in the absence of an agonist, moreover, receptor antagonists will often block coactivator binding, either directly or through the recruitment of a corepressor. Coactivator recruitment assays are therefore a valuable method for directly visualizing associative changes to a receptor caused by the addition of a prospective ligand.
GRIP 1 was expressed as a fusion protein with glutathione-S-transferase, an enzyme which selectively binds glutathione and can thus be used as an affinity reagent. See e.g., U.S. Pat. No. 5,654,176. The GST-GRIP1 fusion protein was expressed in E. coli and purified on glutathione-Sepharose columns. In vitro translated BAR/FXR\RXR (0.6-1.2 μl each) and GST-GRIP 1 (5 μg) were incubated for 30 min at room temperature with 100,000 cpm of the E. coli DNA polymerase Klenow fragment-labeled probes in 10 mM Tris (pH 8.0), 50 mM KCl, 6% glycerol, 0.05% NP-40, 1 mM DTT, 12.5 ng/μl poly dI-dC, and the indicated ligands. Complexes were electrophoresed through 5% polyacrylamide gel in […] (45 mM Tris-base, 45 mM boric acid, 1 mM EDTA) at room temperature. […]
To address the question of whether the two identified compounds are ligands for BAR, we used an in vitro co-activator recruitment assay. […] Because the association between co-activator and receptor results in the formation of a new higher molecular weight species, the ligand-dependent recruitment of co-activator can be detected in gel shift assays and is commonly used as an indicator for ligand binding. […]

[2] = target: T2, Gal-L-RAR (Homo sapiens, UniProt P10276); assay: Gal-L-RAR fusion with Gal 4 reporter (MH100×4) in CV-1 cells; format: cell-based; conditions: 5 μM
T2 construct: expressed in transfected cells; host or cells: CV-1
T2 sequence (P10276 156-462 limits assumed): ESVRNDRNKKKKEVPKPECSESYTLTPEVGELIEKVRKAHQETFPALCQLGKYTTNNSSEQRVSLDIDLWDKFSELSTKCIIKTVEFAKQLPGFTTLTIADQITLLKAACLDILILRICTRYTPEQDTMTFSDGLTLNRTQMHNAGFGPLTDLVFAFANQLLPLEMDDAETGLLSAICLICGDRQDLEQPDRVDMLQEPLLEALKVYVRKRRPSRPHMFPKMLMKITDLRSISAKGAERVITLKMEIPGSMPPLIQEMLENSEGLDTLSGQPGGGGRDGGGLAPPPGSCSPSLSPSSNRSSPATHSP
Method: The nucleic acid regions encoding the following full-length proteins were cloned into a CMV expression vector. […] The βgal contains the E. coli P-galactosidase coding sequences derived from pCH110 (accession #U02445). RXRm contains a single point mutation (Asp-322-Pro) in the LBD of human RXRα.
CV-1 African Green Monkey cells were grown in Dulbecco's Modified Eagle's medium supplemented with 10% resin-charcoal stripped fetal bovine serum (FBS), 50 U/ml penicillin G and 50 μg/ml streptomycin sulfate (DMEM-FBS) at 37° C. in 5% CO2. One day prior to transfection, cells were plated to 50-80% confluence using phenol red-free DMEM-FBS. […]
The harvested cells were assayed for the presence of luciferase activity. […] Luciferase activity was measured by reaction of the cell lysates with luciferin in a reaction buffer comprising: 20 mM tricine, 1.07 mM Mg(CO3)4-Mg(OH)2-5H2O, 2.67 mM MgSO4.7H2O, 0.1 mM EDTA, 0.5 mM Sodium luciferin, 0.15 mg/ml Coenzyme A, 5 mM DTT, and 0.5 mM adenosine triphosphate (ATP). Resulting chemiluminescence was measured in a luminometer. […]
The transfected cells were then treated with the indicated ligands for 40 hours. Activity was measured using luciferase expression in the cotransfection assay described above. […] Thus, Gal-L-RAR or Gal-L-RXR fusions were transfected into CV-1 cells with a Gal 4 reporter (MH100×4) and the effect of different ligands was evaluated.

Structure (SMILES) | recruitment of co-activator GRIP1 (gel shift) [1] | activation of RAR [2] | competition (GRIP1 displacement) with BAR/RXRm heterodimer ([1]; AGN 29 as agonist, increasing AGN 34)
Cc1cc2c(cc1/C(=C/c1ccc(C(=O)O)cc1)[Si](C)(C)C)C(C)(C)CCC2(C)C [AGN 29, (Z)-4-[2-(3,5,5,8,8-Pentamethy1-5,6,7,8-tetrahydronaphthalen-2-yl)-2-(trimethylsilyl)vinyl]benzoic Acid] | shifted the majority of the complexes | loss of specificity for RAR | 
CCCC/C(=C\c1ccc(C(=O)O)cc1)c1ccc2c(c1)C(C)(C)CCC2(C)C [AGN 31, 4-[2-(5,5,8,8-Tetramethyl-5,6,7,8-tetrahydronaphthalen-2-yl)hex-1-enyl]benzoic Acid] | shifted the majority of the complexes | loss of specificity for RAR | 
CCCCCCOc1c(\C(C)=C/C=C/C(C)=C/C(=O)O)cc(C(C)C)cc1C(C)C [AGN 34, (2E, 4E, 6Z)-7-(2-Hexyloxy-3,5-diisopropylphenyl)-3-methylocta-2,4,6-trienoic Acid] |  |  | same results
